Measured values from patent US11690824B2, “Antibacterial compounds” (THE GENERAL HOSPITAL CORPORATION, priority 2018, dated 2023).
≈ marks a conversion by molar mass, not a printed value. Read-outs that look alike come from different tables or passages of the source.

Columns and labels:
P. aeruginosa PA14 = assay: MIC assay; format: cell-based, Pseudomonas aeruginosa; details: Pseudomonas aeruginosa
Excerpt: (§1) Bacterial strains, growth conditions, and persister isolation. Methicillin-resistant S. aureus strains, MW2 BAA-1707, ATCC 33591, and JE2, methicillin-susceptible S. aureus strains, NCTC 8325, Newman, and ATCC 29213, vancomycin-resistant S. aureus strain, VRS1, Enterococcus faecium E007, vancomycin-resistant E. faecium strains, C68,^7 WB312, and WC196, Klebsiella pneumoniae WGLW2 (BEI Resources, Manassas, Va., USA), Acinetobacter baumannii ATCC 17978, Pseudomonas aeruginosa PA14, and Enterobacter aerogenes ATCC 13048 were used to test antimicrobial activity (Table 1). S. aureus strains were grown in tryptic soy broth (TSB) (BD, Franklin Lakes, N.J., USA), and E. faecium was grown in brain-heart infusion (BHI) broth (BD, Franklin Lakes, N.J., USA) at 37° C. K. pneumoniae, A. baumannii, P. aeruginosa, and E. aerogenes were grown in Luria Bertani (LB) broth (BD, Franklin Lakes, N.J., USA) at 37° C.
(§2) Minimal inhibitory concentration (MIC) assay. The MICS of antibiotics were determined by the standard micro-dilution method recommended by the Clinical and Laboratory Standards Institute. MIC assays were conducted in biological triplicate.

S. aureus NCTC 8325 = assay: MIC assay; format: cell-based; details: Staphylococcus aureus
Excerpt: as §1, §2

S. aureus ATCC 33591 = assay: MIC assay; format: cell-based; details: Staphylococcus aureus
Excerpt: as §1, §2

S. aureus VRS1 = assay: MIC assay; format: cell-based; details: Staphylococcus aureus
Excerpt: as §1, §2

S. aureus JE2 = assay: MIC assay; format: cell-based; details: Staphylococcus aureus
Excerpt: as §1, §2

S. aureus Newman = assay: MIC assay; format: cell-based; details: Staphylococcus aureus, read-out: Minimum inhibitory concentration
Excerpt: as §1, §2

A. baumannii ATCC 17978 = assay: MIC assay; format: cell-based, Acinetobacter baumannii; details: Acinetobacter baumannii
Excerpt: as §1, §2

E. faecium WC196 = assay: MIC assay; format: cell-based, Enterococcus faecium; details: Enterococcus faecium
Excerpt: as §1, §2

E. faecium WB312 = assay: MIC assay; format: cell-based, Enterococcus faecium; details: Enterococcus faecium
Excerpt: as §1, §2

E.faecium E007 = assay: MIC assay; format: cell-based, Enterococcus faecium; details: Enterococcus faecium
Excerpt: as §1, §2

E. faecium C68 = assay: MIC assay; format: cell-based, Enterococcus faecium; details: Enterococcus faecium
Excerpt: as §1, §2

E. aerogenes ATCC 13048 = assay: MIC assay; format: cell-based, Enterobacter aerogenes; details: Klebsiella aerogenes
Excerpt: as §1, §2

MRSA MW2 [1] = assay: Serial passage resistance development; format: cell-based, S. aureus; details: 25 days, sub-MIC concentrations
Protocol: Serial passage resistance development. […] Briefly, an extended range of concentrations of nTZDpa was generated by two-fold serial dilution with cation-adjusted Mueller Hinton (CaMH) broth (Difco, Detroit, USA) from three different starting concentrations (20, 24, and 32 μg/mL) covering 0.1875 to 32.0 μg/mL, which extended over three rows of the 96-well plate. Three sets of the extended gradient of nTZDpa were created in the 96-well plate to provide triplicates of the experiment. […] MRSA MW2 overnight cultures were adjusted to 1×10^6 CFU/mL in CaMH broth, and 50 μL of the diluted cultures were dispensed into the 96-well plates containing 50 μL of the extended gradient of antibiotics. After incubation for 24 h at 35° C., bacterial growth was determined by measuring optical density at 600 nm using a SpectraMax plate reader (Molecular Devices, Sunnyvale, Calif.), and growth was defined as an optical density reading of ≥0.1. Bacterial cells growing at the highest concentration of the antimicrobial (just below the MIC) were diluted 1:1000 in CaMH broth and then used to inoculate the next day's serial-passage plate. The remaining bacterial cells were stored at −80° C. in CaMH broth with 16% glycerol. This process was repeated for 25 days.

K. pneumoniae WGLW2 = assay: MIC assay; format: cell-based, Klebsiella pneumoniae; details: Klebsiella pneumoniae
Excerpt: as §1, §2

MRSA MW2 [2] = assay: Deep-seated mouse thigh infection model; format: in vivo; details: vancomycin 25 mg/kg i.p., gentamicin 30 mg/kg s.c., nTZDpa 50 mg/kg i.p., 5 days
Protocol: Deep-seated mouse thigh infection model. In vivo efficacy of nTZDpa alone or in combination with gentamicin against MRSA persisters was evaluated by a previously described neutropenic mouse thigh infection model with modifications. Six-week-old female CD-I mice (20-25 g, Charles River Laboratories, Wilmington, Mass., USA) were obtained from Charles River Laboratories (Wilmington, Mass., USA). The CD-I mice were rendered neutropenic by administering 150 mg/kg and 100 mg/kg of cyclophosphamide intraperitoneally (i.p.) at 4 days and 1 day before infection, respectively. On the day of infection, overnight culture of MRSA MVV2 was washed 3-time with sterile saline and diluted to 10^7 CFU/ml in the saline. 50 μl of the diluted culture (5×10^5 CFU per mouse) was injected to the right thigh of each mouse. nTZDpa was dissolved in Kolliphor EL (Sigma-Aldrich, St Louis, Mo., USA)/ethanol 1:1 and then diluted 1:10 in saline to a final concentration of 50 mg/kg. At 24 h post-infection, groups of mice (n=10) were treated with 30 mg/kg gentamicin subcutaneously (s.c.) every 12 h, 25 mg/kg vancomycin i.p. every 24 h, 50 mg/kg nTZPpa i.p. every 24 h, or the combination of 50 mg/kg nTZDpa i.p. every 24 h and 30 mg/kg gentamicin s.c. every 12 h for 5 days. Control mice were injected with 250 μl of 10% Kolliphor EL/ethanol in saline i.p. every 24 h for 5 days. Mice were euthanized at 96 h post-infection. Blood was collected by cardiac puncture, and the infected thighs were aseptically excised, weighed, and stored at 4° C. until homogenization. To evaluate hepatic and renal toxicities, the levels of alanine aminotransferase and blood urea nitrogen were analyzed with commercially available kits, following the manufacturer's protocol (Pointe Scientific, Canton, Mich., USA). Thighs were homogenized in PBS, serially diluted with PBS, and spot-plated on TSA plates. […] Statistical significance among each group was analyzed by one-way ANOVA with post-hoc Tukey test using PASW Statistics 18 (SPSS Inc. Chicago, Ill., USA).

S. aureus (MRSA) MW2 = assay: Minimal inhibitory concentration (MIC) assay, micro-dilution; format: cell-based; details: Staphylococcus aureus, MRSA, read-out: Minimum inhibitory concentration
Excerpt: as §1, §2

MRSA MW2 [3] = assay: Antibiotic synergy test (checkerboard); format: cell-based, S. aureus; details: nTZDpa in combination with the named antibiotic, synergy if FICI ≤ 0.5
Protocol: Antibiotic synergy test. Antibiotic synergism was evaluated by the checkerboard method. Briefly, 2-fold serial dilutions of nTZDpa were combined with 2-fold serial dilutions of each other antibiotic, which created an 8×8 matrix in a 96-well microtiter plate. The fractional inhibitory concentration index (FICI) was calculated as follows: FICI=MIC of compound A in combination/MIC of compound A alone+MIC of compound B in combination/MIC of compound B alone. The interaction between two compounds was defined, as follows: synergy if FICI≤0.5, no interaction if 0.5<FICI≤4, and antagonism if FICI>4.

S. aureus ATCC 29213 = assay: MIC assay; format: cell-based; details: Staphylococcus aureus, ATCC29213, read-out: Minimum inhibitory concentration
Excerpt: as §1, §2

[4] = system: exponential-phase MRSA MW2; assay: Killing kinetics assay; format: cell-based, S. aureus; details: 32 μg/ml (32× MIC), after 4 hours
Protocol: Killing kinetics assay. An MRSA MW2 overnight culture was diluted 1:10,000 in 25 mL TSB (˜10^5 CFU/mL) in a 250 mL flask and incubated at 37° C. with shaking at 200 rpm for 4.5 h until it reached exponential-phase (˜2×10^7 CFU/mL). 1 mL of the exponential phase cell culture was mixed with 1 mL of pre-warmed TSB containing twice the desired concentrations of antibiotics in a 96-well assay block (Corning Costar 3960). The assay block was incubated at 37° C. with shaking at 200 rpm. At every hour, 400 μl aliquots were taken, washed once with phosphate buffered saline (PBS), serially diluted and spot-plated onto tryptic soy agar (TSA, BD) plates. After incubation at 37° C. for overnight, colonies were counted to enumerate the number of cells. These experiments were conducted in biological triplicate.

Work on `O=C(O)c1cn(C2CC2)c2cc(N3CCNCC3)c(F)cc2c1=O` [Ciprofloxacin, ciprofloxacin] yielded an MIC (P. aeruginosa PA14; P. aeruginosa PA14, read-out: Minimum inhibitory concentration) of 0.063 mg/L (≈ 0.19 µM), an MIC (S. aureus NCTC 8325; NCTC8325, S. aureus NCTC 8325, read-out: Minimum inhibitory concentration) of 0.125 mg/L (≈ 0.377 µM) and an MIC (S. aureus ATCC 33591; ATCC33591, S. aureus ATCC 33591, read-out: Minimum inhibitory concentration) of 0.25 mg/L (≈ 0.754 µM). The MIC (S. aureus VRS1; S. aureus VRS1, read-out: Minimum inhibitory concentration) was 64 mg/L (≈ 193 µM), the MIC (S. aureus JE2; S. aureus JE2, read-out: Minimum inhibitory concentration) was 16 mg/L (≈ 48.3 µM) and the MIC (S. aureus Newman; S. aureus Newman) was 0.25 mg/L (≈ 0.754 µM). It also gave an MIC (A. baumannii ATCC 17978; ATCC17978, A. baumannii ATCC 17978, read-out: Minimum inhibitory concentration) of 0.25 mg/L (≈ 0.754 µM), an MIC (E. faecium WC196; E. faecium WC196, read-out: Minimum inhibitory concentration) of 1 mg/L (≈ 3.02 µM) and an MIC (E. faecium WB312; E. faecium WB312, read-out: Minimum inhibitory concentration) of 32 mg/L (≈ 96.6 µM). The MIC (E.faecium E007; E.faecium E007, read-out: Minimum inhibitory concentration) was > 64 mg/L, the MIC (E. faecium C68; E. faecium C68, read-out: Minimum inhibitory concentration) was > 64 mg/L and the MIC (E. aerogenes ATCC 13048; ATCC13048, E. aerogenes ATCC 13048, read-out: Minimum inhibitory concentration) was 0.031 mg/L (≈ 0.0936 µM). For the same compound, the “increase of MIC over wild-type after serial passage” value (MRSA MW2 [1]) was 32 fold and the MIC (K. pneumoniae WGLW2; K. pneumoniae WGLW2, read-out: Minimum inhibitory concentration) was 0.031 mg/L (≈ 0.0936 µM).
`CN[C@H](CC(C)C)C(=O)N[C@H]1C(=O)N[C@@H](CC(N)=O)C(=O)N[C@H]2C(=O)N[C@H]3C(=O)N[C@H](C(=O)N[C@H](C(=O)O)c4cc(O)cc(O)c4-c4cc3ccc4O)[C@H](O)c3ccc(c(Cl)c3)Oc3cc2cc(c3O[C@@H]2O[C@H](CO)[C@@H](O)[C@H](O)[C@H]2O[C@H]2C[C@](C)(N)[C@H](O)[C@H](C)O2)Oc2ccc(cc2Cl)[C@H]1O` [Vancomycin, vancomycin] was tested, and the “MRSA CFUs / viability of persisters in thigh, single agent” value (MRSA MW2 [2]) was “neither vancomycin nor gentamicin reduced MRSA CFUs”, the MIC (P. aeruginosa PA14; PA14, read-out: Minimum inhibitory concentration) was > 64 mg/L and the MIC (S. aureus (MRSA) MW2) was 1 mg/L (≈ 0.69 µM). The “FICI (fractional inhibitory concentration index)” value (MRSA MW2 [3]) was 1, the MIC (S. aureus NCTC 8325; NCTC8325, read-out: Minimum inhibitory concentration) was 1 mg/L (≈ 0.69 µM) and the MIC (S. aureus ATCC 33591; ATCC33591, read-out: Minimum inhibitory concentration) was 2 mg/L (≈ 1.38 µM). For the same compound, the MIC (S. aureus VRS1; VRS1, read-out: Minimum inhibitory concentration) was > 64 mg/L, the MIC (S. aureus JE2; JE2, read-out: Minimum inhibitory concentration) was 1 mg/L (≈ 0.69 µM) and the MIC (S. aureus Newman; NEWMAN) was 2 mg/L (≈ 1.38 µM). The MIC (S. aureus ATCC 29213) was 1 mg/L (≈ 0.69 µM), the decrease in viability [4] was 2 log and the MIC (A. baumannii ATCC 17978; ATCC17978, read-out: Minimum inhibitory concentration) was > 64 mg/L. It also gave an MIC (E. faecium WC196; WC196, read-out: Minimum inhibitory concentration) of 64 mg/L (≈ 44.2 µM), an MIC (E. faecium WB312; WB312, read-out: Minimum inhibitory concentration) of 16 mg/L (≈ 11 µM) and an MIC (E.faecium E007; E007, read-out: Minimum inhibitory concentration) of 1 mg/L (≈ 0.69 µM). For the same compound, the MIC (E. faecium C68; C68, read-out: Minimum inhibitory concentration) was 64 mg/L (≈ 44.2 µM), the MIC (E. aerogenes ATCC 13048; ATCC13048, read-out: Minimum inhibitory concentration) was > 64 mg/L and the MIC (K. pneumoniae WGLW2; WGLW2, read-out: Minimum inhibitory concentration) was > 64 mg/L.
